Our source for the IC50 values is patent publication US8415469B2, “Compounds and methods for kinase modulation, and indications therefor” (Plexxikon Inc., priority 2005, dated 2013).

What all share (assay type): biochemical
In one assay the target is T1, Fms (Homo sapiens, UniProt P07333).
T1 construct: purchased Upstate Biotechnology
The assay is described as follows: AlphaScreen kinase assay, Fms. To be noted: read-out: IC50, activity toward kinase Fms. For orientation: In Alpha technology, singlet oxygen from a donor bead excites a nearby acceptor bead.

For another assay, the target named is T2, Kit (Homo sapiens, UniProt P10721).
T2 construct: P1332.N6 BI PTP KIT M552-K948-X COD; His6 (N); made in house; host or cells: E. coli (PTP1B co-expressed)
T2 sequence (P10721 with tags, fused parts or gaps): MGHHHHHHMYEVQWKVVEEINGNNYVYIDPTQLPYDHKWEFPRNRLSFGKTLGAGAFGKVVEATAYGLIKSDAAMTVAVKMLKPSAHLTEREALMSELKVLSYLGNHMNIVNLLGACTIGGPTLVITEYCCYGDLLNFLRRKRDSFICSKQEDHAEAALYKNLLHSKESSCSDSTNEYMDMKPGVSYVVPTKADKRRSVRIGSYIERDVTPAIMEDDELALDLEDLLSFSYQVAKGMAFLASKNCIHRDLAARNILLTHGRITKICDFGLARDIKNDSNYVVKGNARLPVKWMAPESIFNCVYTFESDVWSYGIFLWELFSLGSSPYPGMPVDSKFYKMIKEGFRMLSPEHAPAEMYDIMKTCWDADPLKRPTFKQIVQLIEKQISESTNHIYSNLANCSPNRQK
The assay is described as follows: AlphaScreen kinase assay, Kit. Conditions: read-out: IC50, activity toward kinase Kit.

For the next assay, the target named is T3, B-Raf V600E (Homo sapiens, UniProt P15056, V600E).
T3 construct: P4254. pFastBacBD-CDC37 BRAF D437-K722-X, V600E; His6 with pFastBac HT leader (TEV site) (N); made in house; host or cells: Sf9 (baculovirus; chaperone CDC37 co-expressed)
T3 sequence (P15056 with tags, fused parts or gaps V600E): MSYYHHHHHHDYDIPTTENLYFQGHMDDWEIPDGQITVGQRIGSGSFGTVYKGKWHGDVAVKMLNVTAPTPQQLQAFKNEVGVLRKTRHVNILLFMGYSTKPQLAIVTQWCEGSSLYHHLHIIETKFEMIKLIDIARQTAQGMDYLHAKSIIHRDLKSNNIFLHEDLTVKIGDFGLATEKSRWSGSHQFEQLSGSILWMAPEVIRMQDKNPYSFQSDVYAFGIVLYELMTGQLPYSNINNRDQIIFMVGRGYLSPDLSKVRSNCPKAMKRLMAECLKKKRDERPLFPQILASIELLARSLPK
The assay is described as follows: AlphaScreen kinase assay, B-Raf V600E. Conditions: read-out: IC50, activity toward kinase B-Raf V600E.

The next assay has as its target T4, FGFR1 (Homo sapiens, UniProt P11362, C488A/C584S).
T4 construct: P1351.pET N6 BI-PTP FGFR A458-E765-X C488A, C584S; made in house; host or cells: E. coli (PTP1B co-expressed)
The assay is described as follows: AlphaScreen kinase assay, FGFR1. To be noted: read-out: IC50, activity toward kinase FGFR.

In another assay the target is T5, B-Raf (Homo sapiens, UniProt P15056).
T5 construct: purchased Upstate Biotechnology
T5 sequence (P15056 whole entry): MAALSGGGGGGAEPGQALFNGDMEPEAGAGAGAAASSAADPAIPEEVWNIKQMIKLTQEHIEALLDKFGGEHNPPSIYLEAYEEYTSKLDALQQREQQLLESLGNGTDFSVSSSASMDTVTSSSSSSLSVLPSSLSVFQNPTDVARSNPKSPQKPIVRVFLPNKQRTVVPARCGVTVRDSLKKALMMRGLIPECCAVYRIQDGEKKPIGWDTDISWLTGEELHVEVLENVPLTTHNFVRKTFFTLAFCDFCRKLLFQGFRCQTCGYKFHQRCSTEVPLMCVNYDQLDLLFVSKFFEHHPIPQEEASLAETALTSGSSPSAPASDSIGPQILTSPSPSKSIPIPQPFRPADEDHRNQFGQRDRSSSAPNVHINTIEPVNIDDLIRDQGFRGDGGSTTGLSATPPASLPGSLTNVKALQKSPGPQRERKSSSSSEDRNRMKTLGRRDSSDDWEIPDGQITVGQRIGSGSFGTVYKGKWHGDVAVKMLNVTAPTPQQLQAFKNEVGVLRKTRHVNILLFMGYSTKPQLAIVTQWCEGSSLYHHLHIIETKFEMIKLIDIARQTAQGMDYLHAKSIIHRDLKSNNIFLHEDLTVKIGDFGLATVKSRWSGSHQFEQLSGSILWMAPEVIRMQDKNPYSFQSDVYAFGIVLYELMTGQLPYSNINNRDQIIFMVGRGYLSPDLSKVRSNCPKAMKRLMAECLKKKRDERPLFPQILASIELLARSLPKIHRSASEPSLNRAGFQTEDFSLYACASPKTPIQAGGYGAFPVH
The assay is described as follows: AlphaScreen kinase assay, B-Raf. Conditions: read-out: IC50, activity toward kinase B-Raf.

T4 sequence (P11362 458-765 C488A/C584S): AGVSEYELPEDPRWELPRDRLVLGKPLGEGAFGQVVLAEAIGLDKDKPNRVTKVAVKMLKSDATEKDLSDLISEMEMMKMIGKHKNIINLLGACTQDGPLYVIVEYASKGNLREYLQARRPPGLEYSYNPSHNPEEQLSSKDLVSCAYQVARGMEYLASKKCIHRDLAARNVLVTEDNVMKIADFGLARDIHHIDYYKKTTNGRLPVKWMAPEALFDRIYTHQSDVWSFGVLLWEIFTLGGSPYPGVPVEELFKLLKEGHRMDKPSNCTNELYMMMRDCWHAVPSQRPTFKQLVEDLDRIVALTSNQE
T1 sequence (P07333 20-972): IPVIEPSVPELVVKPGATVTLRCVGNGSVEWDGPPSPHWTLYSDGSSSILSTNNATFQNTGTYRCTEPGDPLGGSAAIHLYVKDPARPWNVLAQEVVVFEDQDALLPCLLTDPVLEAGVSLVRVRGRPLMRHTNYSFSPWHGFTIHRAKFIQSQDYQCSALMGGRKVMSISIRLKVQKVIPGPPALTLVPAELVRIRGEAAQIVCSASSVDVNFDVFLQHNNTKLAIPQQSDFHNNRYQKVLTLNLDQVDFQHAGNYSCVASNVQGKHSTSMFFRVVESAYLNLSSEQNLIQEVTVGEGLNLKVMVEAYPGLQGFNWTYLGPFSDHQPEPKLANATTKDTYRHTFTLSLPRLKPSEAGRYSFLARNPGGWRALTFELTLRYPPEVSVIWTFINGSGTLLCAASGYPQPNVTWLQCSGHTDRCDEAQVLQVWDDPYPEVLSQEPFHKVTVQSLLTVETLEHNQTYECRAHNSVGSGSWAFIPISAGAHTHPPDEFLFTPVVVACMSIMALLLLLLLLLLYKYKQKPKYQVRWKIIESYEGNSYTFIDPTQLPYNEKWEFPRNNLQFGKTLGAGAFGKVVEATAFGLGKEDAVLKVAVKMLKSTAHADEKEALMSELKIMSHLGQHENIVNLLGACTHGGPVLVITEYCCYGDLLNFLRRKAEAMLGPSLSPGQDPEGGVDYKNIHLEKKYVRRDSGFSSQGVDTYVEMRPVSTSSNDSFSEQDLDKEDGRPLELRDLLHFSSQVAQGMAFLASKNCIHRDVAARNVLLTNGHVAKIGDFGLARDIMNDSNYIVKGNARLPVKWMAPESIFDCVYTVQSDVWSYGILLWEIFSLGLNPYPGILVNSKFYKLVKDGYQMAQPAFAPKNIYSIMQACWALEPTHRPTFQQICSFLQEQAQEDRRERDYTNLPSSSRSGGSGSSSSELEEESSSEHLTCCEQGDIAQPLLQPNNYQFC

`O=C(c1cccc(OC(F)F)c1)c1c[nH]c2ncc(-c3ccccc3)cc12` [Compound P-1409, (3-Difluoromethoxy-phenyl)-(5-phenyl-1H-pyrrolo[2,3-b]pyridin-3-yl)-methanone]: the half-maximal inhibitory concentration (IC50) at Fms, on Kit, at B-Raf V600E and at FGFR1 was ≤ 10 µM each time.
With `CCCS(=O)(=O)Nc1ccc(F)c(C(=O)c2c[nH]c3ncc(Br)cc23)c1` [Compound P-1431], the IC50 at B-Raf is ≤ 10 µM.
In the case of `O=C(c1ccc2c(c1)OC(F)(F)O2)c1c[nH]c2ncc(-c3cccnc3)cc12` [Compound P-1558, (2,2-Difluoro-benzo[1,3]dioxol-5-yl)-(5-pyridin-3-yl-1H-pyrrolo[2,3-b]pyridin-3-yl)-methanone], the IC50 on Fms and on B-Raf V600E was ≤ 10 µM throughout.
On to `Cc1ccc(S(=O)(=O)Nc2ccc(F)c(C(=O)c3c[nH]c4ncc(Cl)cc34)c2F)cc1F` [Compound P-1823, N-[3-(5-Chloro-1H-pyrrolo[2,3-b]pyridine-3-carbonyl)-2,4-difluoro-phenyl]-3-fluoro-4-methyl-benzenesulfonamide], for which the IC50 on B-Raf and at B-Raf V600E was ≤ 10 µM in each case.
As to `OC(c1c(F)ccc(N(Cc2ccccc2)Cc2ccccc2)c1F)c1c[nH]c2ncc(-c3cccnc3)cc12` (stereo not drawn) [Compound P-1080], at B-Raf, the IC50 was ≤ 10 µM.
On to `COc1cccc(C(=O)c2c[nH]c3ncc(-c4ccc(C#N)cc4)cc23)c1F` [Compound P-1335, 4-[3-(2-Fluoro-3-methoxy-benzoyl)-1H-pyrrolo[2,3-b]pyridin-5-yl]-benzonitrile], for which the IC50 on Fms and at FGFR1 was ≤ 10 µM in each case.
Consider `CS(=O)(=O)Nc1cccc(Nc2c[nH]c3ncccc23)c1` [Compound P-1498, N-[3-(1H-Pyrrolo[2,3-b]pyridin-3-ylamino)-phenyl]-methanesulfonamide], for which the IC50 on Fms and on Kit was ≤ 10 µM each time.
Consider `O=C(c1c(F)ccc(NS(=O)(=O)c2cc(F)cc(F)c2)c1F)c1c[nH]c2ncc(Cl)cc12` [Compound P-1841, N-[3-(5-chloro-1H-pyrrolo[2,3-b]pyridine-3-carbonyl)-2,4-difluoro-phenyl]-3,5-difluorobenzenesulfonamide], for which the half-maximal inhibitory concentration (IC50) on B-Raf and at B-Raf V600E was ≤ 10 µM in each case.
With `Clc1ccc(Cc2c[nH]c3ncccc23)cc1` [Compound P-0233], the IC50 at Fms, on Kit and on FGFR1 was ≤ 10 µM in each case.
On to `COC(=O)c1cccc(Nc2ccnc3[nH]ccc23)c1` [Compound P-0932], for which the IC50 on B-Raf was ≤ 10 µM.
With `CS(=O)(=O)Nc1cccc(-c2cnc3[nH]cc(C(=O)c4cc(OC(F)F)cc(OC(F)F)c4)c3c2)c1` [Compound P-1522, N-{3-[3-(3,5-Bis-difluoromethoxy-benzoyl)-1H-pyrrolo[2,3-b]pyridin-5-yl]-phenyl}-methanesulfonamide], the IC50 at Fms, on Kit and at FGFR1 was ≤ 10 µM in each case.
For `COc1cccc(C(=O)c2c[nH]c3ncc(-c4cccc(Cl)c4)cc23)c1F` [Compound P-1332, [5-(3-Chloro-phenyl)-1H-pyrrolo[2,3-b]pyridin-3-yl]-(2-fluoro-3-methoxy-phenyl)-methanone], the IC50 on Fms and on FGFR1 was ≤ 10 µM in each case.
For the molecule `Clc1ccc(CNc2ccc(Cc3c[nH]c4ncc(Br)cc34)cn2)cc1` [Compound P-0420], the concentration for half-maximal inhibition (IC50) on Fms, on B-Raf V600E and at FGFR1 was ≤ 10 µM throughout.
As for `COc1cccc(Cc2c[nH]c3ncc(-c4cccc(F)c4)cc23)c1F` [Compound P-1327, 3-(2-Fluoro-3-methoxy-benzyl)-5-(3-fluoro-phenyl)-1H-pyrrolo[2,3-b]pyridine], the IC50 at Fms and at FGFR1 was ≤ 10 µM in each case.
Consider `c1ccc(CCc2c[nH]c3ncccc23)cc1` [Compound P-0200], for which the IC50 at B-Raf and on B-Raf V600E was ≤ 10 µM in each case.
Turning to `COc1ccc(Cc2c[nH]c3ncc(-c4ccsc4)cc23)cc1OC` [Compound P-0563], the IC50 at Fms, at Kit and on FGFR1 was ≤ 10 µM throughout.
`COc1cccc(C(=O)c2c[nH]c3ncc(-c4cc(F)cc(F)c4)cc23)c1F` [Compound P-1334, [5-(3,5-Difluoro-phenyl)-1H-pyrrolo[2,3-b]pyridin-3-yl]-(2-fluoro-3-methoxy-phenyl)-methanone]: the IC50 at Fms and on FGFR1 was ≤ 10 µM in each case.
As to `COc1cccc(Cc2c[nH]c3ncc(-c4cccc(OC(F)(F)F)c4)cc23)c1F` [Compound P-1328, 3-(2-Fluoro-3-methoxy-benzyl)-5-(3-trifluoromethoxy-phenyl)-1H-pyrrolo[2,3-b]pyridine], the half-maximal inhibitory concentration (IC50) at Fms and on FGFR1 was ≤ 10 µM throughout.
Turning to `COc1cccc(C(=O)c2c[nH]c3ncc(-c4ccc(Cl)cc4)cc23)c1F` [Compound P-1333, [5-(4-Chloro-phenyl)-1H-pyrrolo[2,3-b]pyridin-3-yl]-(2-fluoro-3-methoxy-phenyl)-methanone], the IC50 on Fms and at FGFR1 was ≤ 10 µM in each case.
Turning to `O=C(c1cccc(C(F)(F)F)c1)c1c[nH]c2ncc(-c3cccnc3)cc12` [Compound P-1410, (5-Pyridin-3-yl-1H-pyrrolo[2,3-b]pyridin-3-yl)-(3-trifluoromethyl-phenyl)-methanone], the IC50 at Fms and at Kit was ≤ 10 µM in each case.
`FC(F)(F)Oc1cccc(Nc2c[nH]c3ncccc23)c1` [Compound P-1493, (1H-Pyrrolo[2,3-b]pyridin-3-yl)-(3-trifluoromethoxy-phenyl)-amine]: the IC50 at Fms and at Kit was ≤ 10 µM in each case.
As to `COc1cc(Nc2c[nH]c3ncccc23)cc(OC)c1` [Compound P-1503, (3,5-Dimethoxy-phenyl)-(1H-pyrrolo[2,3-b]pyridin-3-yl)-amine], the IC50 on Fms and on Kit was ≤ 10 µM in each case.
As to `COc1ccc(Nc2c[nH]c3ncccc23)cc1` [Compound P-1488, (4-Methoxy-phenyl)-(1H-pyrrolo[2,3-b]pyridin-3-yl)-amine], the IC50 at Fms and on Kit was ≤ 10 µM throughout.
Turning to `Fc1ccccc1Cc1c[nH]c2ncc(Br)cc12` [Compound P-1342], the half-maximal inhibitory concentration (IC50) on Fms and on FGFR1 was ≤ 10 µM in each case.
In the case of `OC(c1c(F)ccc(OC(F)F)c1F)c1c[nH]c2ncc(Br)cc12` (stereo not drawn) [Compound P-1525], the IC50 at Fms, at Kit and at FGFR1 was ≤ 10 µM throughout.
Regarding `COc1cc(C(OC)c2c[nH]c3ncccc23)ccc1OCc1ccc(Cl)cc1` (stereo not drawn) [Compound P-1340], the half-inhibitory concentration (IC50) at Fms and at FGFR1 was ≤ 10 µM each time.
In the case of `Clc1cccc(Cl)c1Cc1c[nH]c2ncccc12` [Compound P-1483, 3-(2,6-Dichloro-benzyl)-1H-pyrrolo[2,3-b]pyridine], the IC50 at Fms and at Kit was ≤ 10 µM in each case.
Take `Cc1nc(NCc2ccc(Cl)cc2)ccc1Cc1c[nH]c2ncccc12` [Compound P-0927]: the IC50 on Fms, on B-Raf V600E and at FGFR1 was ≤ 10 µM each time.
Regarding `O=C(NCc1ccc(F)cc1)Nc1ccc(F)c(Cc2c[nH]c3ncc(Cl)cc23)c1F` [Compound P-1654, 1-[3-(5-Chloro-1H-pyrrolo[2,3-b]pyridin-3-ylmethyl)-2,4-difluoro-phenyl]-3-(4-fluoro-benzyl)-urea], at Fms, the IC50 is ≤ 10 µM.
In the case of `COc1cccc(Cc2c[nH]c3ncc(-c4cccc(Cl)c4)cc23)c1F` [Compound P-1326, 5-(3-Chloro-phenyl)-3-(2-fluoro-3-methoxy-benzyl)-1H-pyrrolo[2,3-b]pyridine], the IC50 at Fms and on FGFR1 was ≤ 10 µM in each case.
With `CCCC(=O)Nc1ccc(F)c(Cc2c[nH]c3ncc(OC)cc23)c1F` [Compound P-1369], the IC50 on Fms, at Kit, at B-Raf V600E and on FGFR1 was ≤ 10 µM each time.
For `COc1cccc(C(=O)c2c[nH]c3ncc(-c4cccc(OC(F)(F)F)c4)cc23)c1F` [Compound P-1344, (2-Fluoro-3-methoxy-phenyl)-[5-(3-trifluoromethoxy-phenyl)-1H-pyrrolo[2,3-b]pyridin-3-yl]-methanone], the IC50 at Fms and at FGFR1 was ≤ 10 µM throughout.
With `COc1cccc(Cc2c[nH]c3ncc(-c4cccc(C(F)(F)F)c4)cc23)c1F` [Compound P-1325, 3-(2-Fluoro-3-methoxy-benzyl)-5-(3-trifluoromethyl-phenyl)-1H-pyrrolo[2,3-b]pyridine], the IC50 at Fms and at FGFR1 was ≤ 10 µM in each case.
For `c1ccc(Oc2ccccc2Nc2c[nH]c3ncccc23)cc1` [Compound P-1501, (2-Phenoxy-phenyl)-(1H-pyrrolo[2,3-b]pyridin-3-yl)-amine], the half-inhibitory concentration (IC50) at Fms and on Kit was ≤ 10 µM in each case.
On to `CCCCOc1ccc(NC(=O)Nc2cccc(C(=O)c3c[nH]c4ncc(-c5ccc(F)cc5)cc34)c2)cc1` [Compound P-1754, 1-(4-Butoxy-phenyl)-3-{3-[5-(4-fluoro-phenyl)-1H-pyrrolo[2,3-b]pyridine-3-carbonyl]-phenyl}-urea], for which, on Fms, the IC50 was ≤ 10 µM.
Turning to `CSc1nccc(-c2ccc(S(=O)(=O)NCc3c[nH]c4ncccc34)s2)n1` [Compound P-0854], the IC50 at Fms, on Kit and at FGFR1 was ≤ 10 µM in each case.

One may read the IC50 as the concentration at which inhibition is half-maximal.
